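Five concentrations, 48 hours, 96-well plates. At the GI50, growth is halved. TGI is the concentration that stops growth completely.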
Experiments:
Assay in all cases: NCI anticancer screen, dose series, 48 h
[1] = test system: MALME-3M melanoma
[2] = test system: SNB-19 CNS
[3] = test system: HOP-62 NSCLC
[4] = test system: CAKI-1 renal
[5] = test system: CCRF-CEM leukemia
[6] = test system: NCI/ADR-RES ovarian
[7] = test system: SF-539 CNS
[8] = test system: LOX IMVI melanoma
[9] = test system: MOLT-4 leukemia
[10] = test system: SR leukemia
[11] = test system: HCC-2998 colon
[12] = test system: MCF7 breast
[13] = test system: SK-MEL-2 melanoma
[14] = test system: UO-31 renal
[15] = test system: PC-3 prostate
[16] = test system: IGROV1 ovarian
[17] = test system: NCI-H460 lung
[18] = test system: HL-60(TB) leukemia
[19] = test system: K-562 leukemia
[20] = test system: MDA-MB-435
[21] = test system: MDA-MB-231 breast
[22] = test system: M14 melanoma
[23] = test system: SN12C renal
[24] = test system: OVCAR-4 ovarian
[25] = test system: RPMI-8226 leukemia
[26] = test system: U251 CNS
[27] = test system: OVCAR-3 ovarian
[28] = test system: SK-OV-3 ovarian
[29] = test system: HCT-15 colon
[30] = test system: COLO 205 colon
[31] = test system: HS 578T breast
[32] = test system: ACHN renal
[33] = test system: HCT-116 colon
[34] = test system: KM12 colon
[35] = test system: NCI-H226 lung
[36] = test system: TK-10 renal
[37] = test system: 786-0 renal
[38] = test system: SW-620 colon
[39] = test system: NCI-H23 lung
[40] = test system: NCI-H522 lung
[41] = test system: UACC-257 melanoma
[42] = test system: RXF 393 renal
[43] = test system: SK-MEL-28 melanoma
[44] = test system: SF-268 CNS
[45] = test system: SK-MEL-5 melanoma
[46] = test system: A498 renal
[47] = test system: OVCAR-5 ovarian
[48] = test system: BT-549 breast
[49] = test system: A549 NSCLC
[50] = test system: UACC-62 melanoma
[51] = test system: HT29 colon
[52] = test system: OVCAR-8 ovarian
[53] = test system: T-47D breast
[54] = test system: SF-295 CNS
[55] = test system: HOP-92 NSCLC

## COc1cc(-c2cc(/C=C/C(=O)c3ccc(F)c(F)c3)[nH]n2)cc(OC)c1OC
[1]
  GI50: 2960 nM
  TGI: 9.4 µM
[2]
  GI50: 3.64 µM
  TGI: > 100 µM
[3]
  GI50: 4.39 µM
  TGI: > 100 µM
[4]
  GI50: 2980 nM
  TGI: > 100000 nM
[5]
  GI50: 3.08 µM
  TGI: 47.2 µM
[6]
  GI50: 3.46 µM
  TGI: 50.5 µM
[7]
  GI50: 3.76 µM
  TGI: 17.7 µM
[8]
  GI50: 3.18 µM
  TGI: 12.2 µM
[9]
  GI50: 2720 nM
  TGI: 9.09 µM
[10]
  GI50: 2920 nM
  TGI: > 100 µM
[11]
  GI50: 3.69 µM
  TGI: 34.1 µM
[12]
  GI50: 3.2 µM
  TGI: 12.3 µM
[13]
  GI50: 2300 nM
  TGI: 5.89 µM
[14]
  GI50: 2630 nM
  TGI: 14.2 µM
[15]
  GI50: 1660 nM
  TGI: 5.72 µM
[16]
  GI50: 3620 nM
  TGI: 87 µM
[17]
  GI50: 2960 nM
  TGI: 8.24 µM
[18]
  GI50: 2480 nM
  TGI: 6.03 µM
[19]
  GI50: 3.31 µM
  TGI: 16.5 µM
[20]
  GI50: 2880 nM
  TGI: 13.3 µM
[21]
  GI50: 1640 nM
  TGI: 4580 nM
[22]
  GI50: 2700 nM
  TGI: 11.9 µM
[23]
  GI50: 3.37 µM
  TGI: 25.5 µM
[24]
  GI50: 2200 nM
  TGI: 71.7 µM
[25]
  GI50: 1760 nM
  TGI: 6 µM
[26]
  GI50: 2900 nM
  TGI: 15.7 µM
[27]
  GI50: 2390 nM
  TGI: 6.25 µM
[28]
  GI50: 3530 nM
  TGI: 58.6 µM
[29]
  GI50: 3.01 µM
  TGI: > 100 µM
[30]
  GI50: 1690 nM
  TGI: 3.19 µM
[31]
  GI50: 3580 nM
  TGI: 36.8 µM
[32]
  GI50: 3.26 µM
  TGI: > 100 µM
[33]
  GI50: 4 µM
  TGI: 13.9 µM
[34]
  GI50: 3.06 µM
  TGI: 11.4 µM
[35]
  GI50: 3.72 µM
  TGI: 15.8 µM
[36]
  GI50: 2290 nM
  TGI: 7.41 µM
[37]
  GI50: 3350 nM
  TGI: 15.7 µM
[38]
  GI50: 3.42 µM
  TGI: > 100 µM
[39]
  GI50: 2600 nM
  TGI: 8.5 µM
[40]
  GI50: 1570 nM
  TGI: 4.48 µM
[41]
  GI50: 1750 nM
  TGI: 6.28 µM
[42]
  GI50: 2050 nM
  TGI: 6.34 µM
[43]
  GI50: 5.31 µM
  TGI: 28.2 µM
[44]
  GI50: 3.15 µM
  TGI: > 100 µM
[45]
  GI50: 2270 nM
  TGI: 6.41 µM
[46]
  GI50: 2110 nM
  TGI: 7.13 µM
[47]
  GI50: 4.49 µM
  TGI: 33.8 µM
[48]
  GI50: 4100 nM
  TGI: 19.3 µM
[49]
  GI50: 2430 nM
  TGI: 9.9 µM
[50]
  GI50: 2380 nM
  TGI: 7.44 µM
[51]
  GI50: 2620 nM
  TGI: 6.47 µM
[52]
  GI50: 2880 nM
  TGI: 17.3 µM
[53]
  GI50: 2450 nM
  TGI: 27 µM

## CCN(CC)c1ccc2nc3ccc(N=Nc4ccc(N(C)C)cc4)cc3[n+](-c3ccccc3)c2c1
[4]
  GI50: 146 nM
  TGI: 434 nM
[54]
  GI50: 37.6 nM
  TGI: 191 nM
[13]
  GI50: 369 nM
  TGI: 2.05 µM
[15]
  GI50: 156 nM
  TGI: 2.56 µM
[16]
  GI50: 93.4 nM
  TGI: 1.53 µM
[18]
  GI50: 73.9 nM
  TGI: 0.89 µM
[21]
  GI50: 83.1 nM
  TGI: 426 nM
[24]
  GI50: 24.3 nM
  TGI: 0.0929 µM
[25]
  GI50: 31.4 nM
  TGI: 1.35 µM
[28]
  GI50: 390 nM
  TGI: 13.7 µM
[31]
  GI50: 448 nM
  TGI: > 100 µM
[36]
  GI50: 389 nM
  TGI: 2.1 µM
[37]
  GI50: 247 nM
  TGI: 2.39 µM
[39]
  GI50: 80.9 nM
  TGI: 1.37 µM
[55]
  GI50: 170 nM
  TGI: 811 nM
[48]
  GI50: 424 nM
  TGI: 2.57 µM
[52]
  GI50: 110 nM
  TGI: 1.48 µM

Reference: PubChem BioAssay (NCI)
